Results published in patent publication US6509035B1, “Oral preparation of coenzyme a useful for lowering blood lipid and a method producing for same” (Shanghai Materia Medica Bioengineering Institute, priority 1999, dated 2003).

How the values were obtained:
serum cholesterol = assay: Effect of CoA on serum cholesterol in patients with hyperlipemia; format: in vivo, human; details: oral 35 units three times daily
Method: (§1) Object: Individuals with plasma lipid more than 90% of upper limit of normal person were chosen, i.e. serum cholesterol >230 mg %, or triglyceride >160 mg %, 39 patients in total, 14 male, aged from 28-65; 25 female, aged from 32 to 70.
(§2) Oral dosage of CoA: one tablet per time, 35 units per tablet, administered on empty stomach three times daily. Three months was used as a course of treatment. During the course of the administration, the patients had diet same as the normal and stopped the administration of any other lipid-lowering medicament.
(§3) Measurement of plasma lipid: venous blood samples were taked from 12-14 hrs-fasting patients before administration and one month and 3 months after administration. Concentration of serum cholesterol and triglyceride were measured after isolation of serum. In the meantime, each patients' medical history was inquired, blood pressure was measured and liver function was determined.
(2) Effect on cholesterol: Statistical analysis was carried out on the difference of the concentration of serum cholesterol of patients with hyperlipemia between before and after the administration of CoA by individual comparison test.

peripheral platelet = assay: Effect of CoA on peripheral platelet of experimental dogs; format: in vivo, dog
Method: Object: 10 experimental dogs were used and devided into 2 groups of 5 to which oral or injection preparations of CoA was adminisered, respectively. Their peripheral platelet samples were taken and tested at intervals to observe the differences between before and after administration.
Dosage of CoA: Oral administration group, 100 units per time, twice per day. Injection administration group, 35 units per time, twice per day.
Result: Statistical analysis were carried out on the changes of the number of platelets before and after the administration of CoA to dogs by individual comparison test. It is noted that exogenous CoA can improve the level of platelet in experimental dogs in a short time either administered by oral or injection route.

serum triglyceride = assay: Effect of CoA on serum triglyceride in patients with hyperlipemia; format: in vivo, human; details: oral 35 units three times daily
Method: as §1, §2, §3
(1) Effect on triglyceride: Statistical analysis were carried out on the difference of the concentration of serum triglyceride of hyperlipemia patients between before and after the administration of CoA by individual comparison test.

CC(C)(COP(=O)(O)OP(=O)(O)OC[C@H]1O[C@@H](n2cnc3c(N)ncnc32)[C@H](O)[C@@H]1OP(=O)(O)O)[C@@H](O)C(=O)NCCC(=O)NCCS [CoA, coenzyme A]
Average difference of serum cholesterol concentration between before and after administration (decrement) (serum cholesterol; one month): 25.7 mg %
Average difference of serum cholesterol concentration between before and after administration (decrement) (serum cholesterol; three months): 22.1 mg %
Average increment of platelets (peripheral platelet; injection administration group, day 8 (P<0.01)): 170,800 /mm^3
Average increment of platelet (peripheral platelet; injection administration, 35 units twice per day, sampling time 1): 0.28 10,000/mm^3
Average increment of platelet (peripheral platelet; injection administration, 35 units twice per day, sampling time 3): 7.44 10,000/mm^3
Average increment of platelet (peripheral platelet; injection administration, 35 units twice per day, sampling time 6): 5.48 10,000/mm^3
Average increment of platelet (peripheral platelet; injection administration, 35 units twice per day, sampling time 8): 17.08 10,000/mm^3
Average increment of platelet (peripheral platelet; injection administration, 35 units twice per day, sampling time 10): 11.36 10,000/mm^3
Average increment of platelet (peripheral platelet; injection administration, 35 units twice per day, sampling time 13): 3.68 10,000/mm^3
Average increment of platelets (peripheral platelet; oral administration group, day 6 (P<0.05)): 133,000 /mm^3
Average increment of platelet (peripheral platelet; oral administration, 100 units twice per day, sampling time 1): 8.64 10,000/mm^3
Average increment of platelet (peripheral platelet; oral administration, 100 units twice per day, sampling time 3): 8.06 10,000/mm^3
Average increment of platelet (peripheral platelet; oral administration, 100 units twice per day, sampling time 6): 13.3 10,000/mm^3
Average increment of platelet (peripheral platelet; oral administration, 100 units twice per day, sampling time 8): 4.25 10,000/mm^3
Average increment of platelet (peripheral platelet; oral administration, 100 units twice per day, sampling time 10): 1.96 10,000/mm^3
Average increment of platelet (peripheral platelet; oral administration, 100 units twice per day, sampling time 13): −2.52 10,000/mm^3
Average difference of triglyceride concentration between before and after administration (decrement) (serum triglyceride; one month): 64.2 mg %
Average difference of triglyceride concentration between before and after administration (decrement) (serum triglyceride; three months): 75.5 mg %
